This is an account of results in patent EP2891655A1, “Anilides-alkylthioethers as ACAT inhibitors for the treatment de dermatological diseases” (PIERRE FABRE MEDICAMENT, priority 2011, dated 2012).

In data set [1] the test system is procollagène de type 1. The following applies: protein level and mRNA; cited from earlier work.
Data set [2] concerns ACAT. Briefly: ACAT activity, intact HepG2 cells (method of Chautan et al.). In kind it is cell-based, humaines. From the text:
(§1) Les expérimentations utilisent la méthode de Chautan M. et coll., (Anal. Biochem. 1988) afin de déterminer l'activité ACAT. Les activités sont exprimées en concentrations inhibitrices à 50% (CI50), l'unité est le nM. Deux types de préparations enzymatiques ont été utilisés pour analyser l'activité putative des composés : microsomes hépatiques de rat et cellules humaines intactes HepG2. Les microsomes sont obtenus à partir de fractionnement subcellulaire utilisant une étape d'homogénéisation puis une étape d'ultracentrifugation. Le dosage de l'activité ACAT est réalisé par incubation des microsomes hépatiques ou des cellules avec le composé d'intérêt ainsi que le précurseur radiomarqué. La séparation du produit de la réaction à partir du milieu d'incubation acellulaire ou cellulaire est réalisée par élution sur colonne de silice; le cholesteryl-oléate formé est ensuite quantifié en radioanalyse.

The test system of data set [3] is ACAT. Briefly: ACAT activity, rat liver microsomes (method of Chautan et al.). In kind it is biochemical. The settings on record: radiolabelled precursor, cholesteryl-oléate formed quantified, read-out: microsomes CI50.
Description: as §1

Data set [4] deals with ACAT. As to the kind of experiment: ACAT inhibition in vivo: plasma cholesterol in rats on a hypercholesterolemic diet. The settings on record: oral route, 4 days of hypercholesterolemic diet with simultaneous treatment, plasma cholesterol on day 5 (colorimetric). From the text: Les rats sont soumis à un régime alimentaire hypercholestérolémique pendant 4 jours. Les animaux sont traités simultanément par voie orale avec les différentes molécules. Le cinquième jour les animaux sont euthanasiés et la variation des taux de cholestérol plasmatique circulant analysée par méthode colorimétrique. Les activités sont exprimées en doses efficaces à 50% (DE50), l'unité est le mg/kg.

Data set [5] concerns glandes sébacées. The following applies: primate, chronic treatment; cited from earlier work.
The mark [6] stands for this setting: intact human HepG2 cells; radiolabelled precursor, cholesteryl-oléate formed quantified; read-out: HepG2 CI50.
The mark [7] stands for this setting: read-out: HepG2 CI50; intact human HepG2 cells; radiolabelled precursor, cholesteryl-oléate formed quantified.

Turning to `CSc1cc(C)nc(SC)c1NC(=O)CN1CCN(CCSc2nc3ccccc3[nH]2)CC1` [K-604], the “procollagène de type 1” value in data set [1] is “augmentation de procollagène de type 1”.

`CCCCCCCCCCCCSC(C(=O)Nc1cc(C)c(O)c(C)c1C)c1ccsc1` (stereo not shown) [Exemple 6, 2-(dodécylthio)-N-(4-hydroxy-2,3,5-triméthylphényl)-2-(thiophén-3-yl)acétamide]: the figures for the IC50 in data set [2] (setting [6]) and in data set [3] were 27 nM and 71 nM, respectively. In data set [4], the “Etude in vivo chez le rat DE50” value was 0.17 mg/kg.

`CCCCCCCCCCSC(C)(C)C(=O)N1CCC[C@H]1C(=O)Nc1cc(C)c(O)c(C)c1C` [Exemple 4, (S)-1-(2-(décylthio)-2-méthylpropanoyl)-N-(4-hydroxy-2,3,5-triméthyl-phényl)-pyrrolidine-2-carboxamide]: the “Etude in vivo chez le rat DE50” value in data set [4] came to 0.63 mg/kg.

On to `CCCCCCCCCCCCSC(C)(C)C(=O)N1CSC[C@H]1C(=O)Nc1cc(C)c(O)c(C)c1C` [Exemple 5, (R)-3-(2-(dodécylthio)-2-méthylpropanoyl)-N-(4-hydroxy-2,3,5-triméthyl-phényl)thiazolidine-4-carboxamide], for which the IC50 in data set [2] (setting [6]) was 39 nM; in data set [3], 34 nM. In addition, the “Etude in vivo chez le rat DE50” value in data set [4] is less than 0.63 mg/kg.

As for `CC(C)c1cccc(C(C)C)c1NC(=O)NCC1(c2ccc(N(C)C)cc2)CCCC1.Cl` [PD 132301-2], in data set [5], the “effet secondaire sur les glandes sébacées” value is recorded as “atrophie des glandes sébacées”.

Consider `CCCCCCCCCCCCSC(C(=O)Nc1c(C)c(C)c(N)c(C)c1C)c1cccs1` (stereo not shown) [Exemple 8, chlorhydrate du N-(4-amino-2,3,5,6-tétraméthylphényl)-2-(dodécylthio)-2-(thiophén-2-yl)acétamide], for which the IC50 worked out at 38 nM in data set [2] (setting [7]) and 69 nM in data set [3]. Moreover, the “Etude in vivo chez le rat DE50” value in data set [4] was determined as 0.26 mg/kg.

Regarding `CCCCCCCCCCCCSC(C)(C)C(=O)N1CCCCC1C(=O)Nc1cc(C)c(O)c(C)c1C` (stereo not shown) [Exemple 1, 1-(2-(dodécylthio)-2-méthylpropanoyl)-N-(4-hydroxy-2,3,5-triméthyl-phényl)pipéridine-2-carboxamide], the IC50 in data set [2] (setting [6]) and in data set [3] was 47 nM throughout. In data set [4], the “Etude in vivo chez le rat DE50” value amounted to 0.63 mg/kg.

With `CCCCCCCCCCCCSC(C)(C)C(=O)N1CCC[C@H]1C(=O)Nc1cc(C)c(O)c(C)c1C` [Exemple 3, (S)-1-(2-(dodécylthio)-2-méthylpropanoyl)-N-(4-hydroxy-2,3,5-triméthyl-phényl)pyrrolidine-2-carboxamide], the IC50 was found to be 34 nM in data set [2] (setting [6]) and 18 nM in data set [3]. Moreover, the “Etude in vivo chez le rat DE50” value in data set [4] is on record as less than 0.63 mg/kg.

Turning to `CCCCCCCCCCCCSC(C(=O)Nc1c(C)c(C)c(N)c(C)c1C)c1ccsc1` (stereo not shown) [Exemple 7, chlorhydrate du N-(4-amino-2,3,5,6-tétraméthylphényl)-2-(dodécylthio)-2-(thiophén-3-yl)acétamide], the IC50 in data set [2] (setting [7]) was determined as 93 nM; in data set [3] it was 41 nM. For the same compound, in data set [4], the “Etude in vivo chez le rat DE50” value was 0.16 mg/kg.

Take `CCCCCCCCCCCCSC(C)(C)C(=O)N1CCCC1C(=O)Nc1cc(C)c(O)c(C)c1C` (stereo not shown) [Exemple 2, 1-(2-(dodécylthio)-2-méthylpropanoyl)-N-(4-hydroxy-2,3,5-triméthyl-phényl)-pyrrolidine-2-carboxamide]: the IC50 in data set [2] (setting [6]) is 48 nM; in data set [3], 81 nM. Moreover, the “Etude in vivo chez le rat DE50” value in data set [4] is recorded as less than 0.63 mg/kg.

Take `CCCCCCCCN1CCc2c(C)c(CC(=O)O)c(C)c(NC(=O)C(C)(C)C)c21` [pactimibe]: the “procollagène de type 1” value in data set [1] is “n'ont pas cette propriété”.
